The values that follow come from ChEMBL document CHEMBL2029253, “Pharmacophore modeling, virtual screening and 3D-QSAR studies of 5-tetrahydroquinolinylidine aminoguanidine derivatives as sodium hydrogen exchanger inhibitors” (Bioorg Med Chem Lett, 2012).

This experiment is described as follows: Inhibition of sodium hydrogen exchanger-mediated platelet swelling in human. Particulars: for IC50: Homo sapiens.

With `COc1ccnc2c1/C(=N/N=C(N)N)CC(c1ccccc1Cl)C2` (configuration not stated), the IC50 was less than 50 nM (read-out: IC50) and 50 nM (read-out: pIC50 (converted)).

Take `N=C(N)N/N=c1\cc(-c2ccccc2)oc2ccccc12`: the IC50 reads like this: (read-out: IC50) 6400 nM; (read-out: pIC50 (converted)) 6400 nM.

`Cc1ccnc2c1/C(=N/N=C(N)N)CC(c1cc(Cl)ccc1Cl)C2` (configuration not stated): the IC50 (read-out: pIC50 (converted)) was 57.9 nM.

Regarding `Cc1ccnc2c1/C(=N/N=C(N)N)CC(c1ccccc1F)C2` (configuration not stated), the IC50 reads like this: (read-out: IC50) 32 nM; (read-out: pIC50 (converted)) 32 nM.

In the case of `Cc1coc2c1/C(=N/N=C(N)N)CC(c1ccccc1Cl)C2` (configuration not stated), where the note is “read-out: pIC50 (converted)”, the IC50 was 82 nM.

With `Cc1[nH]nc2c1/C(=N/N=C(N)N)CC(c1ccccc1Cl)C2` (configuration not stated), the IC50 (read-out: pIC50 (converted)) was 55 nM.

For the compound `N=C(N)N/N=C1\CC(c2ccccc2)Cc2ncccc21` (configuration not stated), the IC50 is 410 nM (read-out: IC50) and 410 nM (read-out: pIC50 (converted)).

As to `Cc1ccnc2c1/C(=N/N=C(N)N)CC(c1cc(F)ccc1F)C2` (configuration not stated), the IC50 (read-out: pIC50 (converted)) is 39 nM.

Consider `COc1ccc(F)cc1C1C/C(=N\N=C(N)N)c2c(C)ccnc2C1` (configuration not stated), for which the IC50 (read-out: pIC50 (converted)) was 32 nM.

Consider `Cc1ccnc2c1/C(=N/N=C(N)N)CC(c1ccccc1Cl)C2` (configuration not stated), for which the IC50 reads like this: (read-out: IC50) less than 50 nM; (read-out: pIC50 (converted)) 40 nM.

Regarding `Cc1ccnc2c1/C(=N/N=C(N)N)CC(c1ccccc1)C2` (configuration not stated), the IC50 is less than 50 nM (read-out: IC50) and 91 nM (read-out: pIC50 (converted)).

Take `Cc1ccnc2c1/C(=N/N=C(N)N)CC(c1cc(F)ccc1Cl)C2` (configuration not stated): affinity was put at a Ki of 19 nM. Besides, the IC50 (read-out: pIC50 (converted)) was 19 nM.

For the compound `Cc1ncnc2c1/C(=N/N=C(N)N)CC(c1ccccc1Cl)C2` (configuration not stated), the IC50 (read-out: pIC50 (converted)) was 240 nM.

With `Cc1ccnc2c1/C(=N/N=C(N)N)CC(c1ccc(Cl)cc1Cl)C2` (configuration not stated), for the setting “read-out: pIC50 (converted)”, the IC50 is 340 nM.

As to `Cc1cc(C)c2c(n1)CC(c1ccccc1)C/C2=N\N=C(N)N` (configuration not stated), the IC50 by setting is: (read-out: IC50) less than 50 nM; (read-out: pIC50 (converted)) 180 nM.

In the case of `Cc1ccnc2c1/C(=N/N=C(N)N)CC(c1sc(Cl)cc1Cl)C2` (configuration not stated), the IC50 (read-out: pIC50 (converted)) is 49 nM.

`Cc1ccccc1C1C/C(=N\N=C(N)N)c2c(C)ccnc2C1` (configuration not stated): the IC50 by setting is: (read-out: IC50) 57 nM; (read-out: pIC50 (converted)) 57 nM.

Turning to `Cc1csc2c1/C(=N/N=C(N)N)CC(c1ccccc1Cl)C2` (configuration not stated), for the setting “read-out: pIC50 (converted)”, the IC50 is 220 nM.

As to `Cc1ccnc2c1/C(=N/N=C(N)N)CC(c1sccc1Cl)C2` (configuration not stated), the IC50 (read-out: pIC50 (converted)) is 19 nM.

As to `Cc1ccnc2c1/C(=N/N=C(N)N)CC(c1cccs1)C2` (configuration not stated), the IC50 (read-out: pIC50 (converted)) is 47 nM.

On to `Cc1ccc2c(n1)CC(c1ccccc1)C/C2=N\N=C(N)N` (configuration not stated), for which the IC50 is 2800 nM (read-out: IC50) and 2800 nM (read-out: pIC50 (converted)).

On to `Cc1cnnc2c1/C(=N/N=C(N)N)CC(c1ccccc1Cl)C2` (configuration not stated), for which the IC50 (read-out: pIC50 (converted)) was 26 nM.

As for `Cc1ccccc1C1C/C(=N\N=C(N)N)c2c(C)c[nH]c2C1` (configuration not stated), the IC50 (read-out: pIC50 (converted)) was 34 nM.

Regarding `N=C(N)N/N=C1\CC(c2ccccc2)Cc2[nH]ccc21` (configuration not stated), the IC50 (read-out: pIC50 (converted)) is 3500 nM.

For the compound `Cc1ccnc2c1/C(=N/N=C(N)N)CC(c1cccc(Cl)c1)C2` (configuration not stated), the IC50 by setting is: (read-out: IC50) less than 50 nM; (read-out: pIC50 (converted)) 61 nM.

For `Cc1ccnc2c1/C(=N/N=C(N)N)CC(c1ccsc1Cl)C2` (configuration not stated), the IC50 (read-out: pIC50 (converted)) was 22 nM.

With `Cc1ccnc2c1/C(=N/N=C(N)N)CC(c1ccco1)C2` (configuration not stated), for the setting “read-out: pIC50 (converted)”, the IC50 was 110 nM.

Turning to `Cc1ccnc2c1/C(=N/N=C(N)N)CC(c1ccsc1)C2` (configuration not stated), where the note is “read-out: pIC50 (converted)”, the IC50 was 30 nM.

`N=C(N)N/N=C1\CC(c2ccccc2)Oc2ccccc21` (configuration not stated): the IC50 (read-out: IC50) is not above 6400 nM and the IC50 (read-out: pIC50 (converted)) was 3300 nM.

In the case of `Cc1ccnc2c1/C(=N/N=C(N)N)CC(c1ccccc1Br)C2` (configuration not stated), the IC50 was 56 nM (read-out: IC50) and 56 nM (read-out: pIC50 (converted)).

As to `Cc1cccc2c1/C(=N/N=C(N)N)CC(c1ccccc1Cl)O2` (configuration not stated), the IC50 (read-out: pIC50 (converted)) was 200 nM.

In the case of `Cc1ccnc2c1/C(=N/N=C(N)N)CC(c1ccc(Cl)cc1)C2` (configuration not stated), the IC50 (read-out: IC50) is less than 50 nM and the IC50 (read-out: pIC50 (converted)) is 550 nM.

For the compound `Cc1ccnc2c1/C(=N/N=C(N)N)CC(c1cccc(Cl)c1Cl)C2` (configuration not stated), where the note is “read-out: pIC50 (converted)”, the IC50 was 88.9 nM.

For the compound `COc1ccccc1C1C/C(=N\N=C(N)N)c2c(C)ccnc2C1` (configuration not stated), the IC50 by setting is: (read-out: IC50) 100 nM; (read-out: pIC50 (converted)) 100 nM.

Regarding `Cc1ccc(F)cc1C1C/C(=N\N=C(N)N)c2c(C)ccnc2C1` (configuration not stated), the IC50 (read-out: pIC50 (converted)) was 37 nM.

In the case of `Cc1ccnc2c1/C(=N/N=C(N)N)CC(c1cc(Cl)sc1Cl)C2` (configuration not stated), under “read-out: pIC50 (converted)”, the IC50 was 19 nM.

With `Cc1ccnc2oc(-c3ccccc3Cl)c/c(=N\NC(=N)N)c12`, the IC50 (read-out: pIC50 (converted)) was 360 nM.

For orientation: Ki means the dissociation constant of the complex between target and ligand, obtained from inhibition or displacement. Read a high Ki as lower affinity.
